Legend:
[1] = system: Tyrosine-protein kinase ABL1 (Homo sapiens), P00519 [F317I]; conditions: Compound concentration 1000.0 nM
[2] = molecular target: RAC-alpha serine/threonine-protein kinase (Homo sapiens) (UniProt P31749); conditions: Compound concentration 1000.0 nM
[3] = molecular target: 5'-AMP-activated protein kinase catalytic subunit alpha-2 (Homo sapiens) (UniProt P54646); conditions: Compound concentration 1000.0 nM
[4] = molecular target: Aurora kinase C (Homo sapiens) (UniProt Q9UQB9); conditions: Compound concentration 1000.0 nM
[5] = molecular target: Cyclin-dependent kinase 4 (Homo sapiens) (UniProt P11802); conditions: Compound concentration 1000.0 nM
[6] = molecular target: Casein kinase I isoform gamma-3 (Homo sapiens) (UniProt Q9Y6M4); conditions: Compound concentration 1000.0 nM
[7] = molecular target: Tyrosine-protein kinase Fer (Homo sapiens) (UniProt P16591); conditions: Compound concentration 1000.0 nM
[8] = molecular target: Fibroblast growth factor receptor 3 (Homo sapiens) (UniProt P22607); conditions: Compound concentration 1000.0 nM
[9] = molecular target: Inhibitor of nuclear factor kappa-B kinase subunit beta (Homo sapiens) (UniProt O14920); conditions: Compound concentration 1000.0 nM
[10] = system: Mast/stem cell growth factor receptor Kit (Homo sapiens), P10721 [D816H]; conditions: Compound concentration 1000.0 nM
[11] = system: Mast/stem cell growth factor receptor Kit (Homo sapiens), P10721 [V559D]; conditions: Compound concentration 1000.0 nM
[12] = system: Leucine-rich repeat serine/threonine-protein kinase 2 (Homo sapiens), Q5S007 [G2019S]; conditions: Compound concentration 1000.0 nM
[13] = molecular target: Dual specificity mitogen-activated protein kinase kinase 1 (Homo sapiens) (UniProt Q02750); conditions: Compound concentration 1000.0 nM
[14] = molecular target: MAP kinase-interacting serine/threonine-protein kinase 1 (Homo sapiens) (UniProt Q9BUB5); conditions: Compound concentration 1000.0 nM
[15] = molecular target: Myosin light chain kinase (Homo sapiens) (UniProt Q32MK0); conditions: Compound concentration 1000.0 nM
[16] = molecular target: Serine/threonine-protein kinase 24 (Homo sapiens) (UniProt Q9Y6E0); conditions: Compound concentration 1000.0 nM
[17] = molecular target: Serine/threonine-protein kinase PAK 1 (Homo sapiens) (UniProt Q13153); conditions: Compound concentration 1000.0 nM
[18] = molecular target: Platelet-derived growth factor receptor beta (Homo sapiens) (UniProt P09619); conditions: Compound concentration 1000.0 nM
[19] = molecular target: Phosphatidylinositol 4-phosphate 3-kinase C2 domain-containing subunit beta (Homo sapiens) (UniProt O00750); conditions: Compound concentration 1000.0 nM
[20] = system: Phosphatidylinositol 4,5-bisphosphate 3-kinase catalytic subunit alpha isoform (Homo sapiens), P42336 [C420R]; conditions: Compound concentration 1000.0 nM
[21] = system: Phosphatidylinositol 4,5-bisphosphate 3-kinase catalytic subunit alpha isoform (Homo sapiens), P42336 [E545A]; conditions: Compound concentration 1000.0 nM
[22] = system: Phosphatidylinositol 4,5-bisphosphate 3-kinase catalytic subunit alpha isoform (Homo sapiens), P42336 [H1047L]; conditions: Compound concentration 1000.0 nM
[23] = molecular target: Serine/threonine-protein kinase pim-2 (Homo sapiens) (UniProt Q9P1W9); conditions: Compound concentration 1000.0 nM
[24] = molecular target: Serine/threonine-protein kinase N1 (Homo sapiens) (UniProt Q16512); conditions: Compound concentration 1000.0 nM
[25] = molecular target: Serine/threonine-protein kinase PLK4 (Homo sapiens) (UniProt O00444); conditions: Compound concentration 1000.0 nM
[26] = molecular target: Transient receptor potential cation channel subfamily M member 6 (Homo sapiens) (UniProt Q9BX84); conditions: Compound concentration 1000.0 nM
[27] = molecular target: Serine/threonine-protein kinase ULK2 (Homo sapiens) (UniProt Q8IYT8); conditions: Compound concentration 1000.0 nM
[28] = molecular target: Serine/threonine-protein kinase VRK2 (Homo sapiens) (UniProt Q86Y07); conditions: Compound concentration 1000.0 nM
[29] = molecular target: Serine/threonine-protein kinase 32C (Homo sapiens) (UniProt Q86UX6); conditions: Compound concentration 1000.0 nM
[30] = molecular target: T1, D(4) dopamine receptor (Homo sapiens) (UniProt P21917); conditions: Compound concentration 10.0 uM
T1 sequence (whole entry): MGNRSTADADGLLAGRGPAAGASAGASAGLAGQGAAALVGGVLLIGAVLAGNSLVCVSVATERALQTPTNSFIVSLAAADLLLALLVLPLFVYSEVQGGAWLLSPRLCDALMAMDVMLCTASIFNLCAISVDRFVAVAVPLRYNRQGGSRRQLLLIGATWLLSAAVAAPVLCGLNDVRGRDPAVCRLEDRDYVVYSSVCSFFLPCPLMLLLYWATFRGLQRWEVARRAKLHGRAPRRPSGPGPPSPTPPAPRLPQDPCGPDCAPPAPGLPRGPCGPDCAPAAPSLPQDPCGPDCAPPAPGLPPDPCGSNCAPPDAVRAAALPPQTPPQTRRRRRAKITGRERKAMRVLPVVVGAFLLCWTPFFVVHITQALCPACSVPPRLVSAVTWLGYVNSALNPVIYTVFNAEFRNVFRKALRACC

[31] = molecular target: Beta-2 adrenergic receptor (Homo sapiens) (UniProt P07550); conditions: Compound concentration 10.0 uM
[32] = molecular target: T2, Muscarinic acetylcholine receptor M5 (Homo sapiens) (UniProt P08912); conditions: Compound concentration 10.0 uM
T2 sequence (whole entry): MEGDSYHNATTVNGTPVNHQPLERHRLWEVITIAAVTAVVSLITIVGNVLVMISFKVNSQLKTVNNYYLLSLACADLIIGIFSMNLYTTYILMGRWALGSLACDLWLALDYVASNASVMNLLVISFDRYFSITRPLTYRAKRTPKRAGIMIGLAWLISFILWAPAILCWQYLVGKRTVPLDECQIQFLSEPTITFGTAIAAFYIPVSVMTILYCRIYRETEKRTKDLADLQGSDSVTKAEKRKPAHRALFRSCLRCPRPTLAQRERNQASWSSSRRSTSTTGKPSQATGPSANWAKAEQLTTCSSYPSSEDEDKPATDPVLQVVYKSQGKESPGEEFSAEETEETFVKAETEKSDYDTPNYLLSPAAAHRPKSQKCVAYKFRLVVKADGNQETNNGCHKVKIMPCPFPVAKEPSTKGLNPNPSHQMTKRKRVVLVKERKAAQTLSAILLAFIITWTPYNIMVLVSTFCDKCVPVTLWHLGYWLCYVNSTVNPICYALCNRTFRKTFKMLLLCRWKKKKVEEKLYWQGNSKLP

Sequence of Cyclin-dependent kinase 4 (Homo sapiens) (P11802 whole entry, canonical isoform): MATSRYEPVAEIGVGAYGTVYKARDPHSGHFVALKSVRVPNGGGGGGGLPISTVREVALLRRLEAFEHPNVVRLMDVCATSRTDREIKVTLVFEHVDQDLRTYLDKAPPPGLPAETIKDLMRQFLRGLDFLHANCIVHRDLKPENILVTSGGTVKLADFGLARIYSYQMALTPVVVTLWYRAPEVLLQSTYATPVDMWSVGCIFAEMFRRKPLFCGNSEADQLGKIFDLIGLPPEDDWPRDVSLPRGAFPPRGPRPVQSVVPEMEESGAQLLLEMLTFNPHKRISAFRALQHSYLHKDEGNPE
Sequence of Tyrosine-protein kinase Fer (Homo sapiens) (P16591 whole entry, looked up): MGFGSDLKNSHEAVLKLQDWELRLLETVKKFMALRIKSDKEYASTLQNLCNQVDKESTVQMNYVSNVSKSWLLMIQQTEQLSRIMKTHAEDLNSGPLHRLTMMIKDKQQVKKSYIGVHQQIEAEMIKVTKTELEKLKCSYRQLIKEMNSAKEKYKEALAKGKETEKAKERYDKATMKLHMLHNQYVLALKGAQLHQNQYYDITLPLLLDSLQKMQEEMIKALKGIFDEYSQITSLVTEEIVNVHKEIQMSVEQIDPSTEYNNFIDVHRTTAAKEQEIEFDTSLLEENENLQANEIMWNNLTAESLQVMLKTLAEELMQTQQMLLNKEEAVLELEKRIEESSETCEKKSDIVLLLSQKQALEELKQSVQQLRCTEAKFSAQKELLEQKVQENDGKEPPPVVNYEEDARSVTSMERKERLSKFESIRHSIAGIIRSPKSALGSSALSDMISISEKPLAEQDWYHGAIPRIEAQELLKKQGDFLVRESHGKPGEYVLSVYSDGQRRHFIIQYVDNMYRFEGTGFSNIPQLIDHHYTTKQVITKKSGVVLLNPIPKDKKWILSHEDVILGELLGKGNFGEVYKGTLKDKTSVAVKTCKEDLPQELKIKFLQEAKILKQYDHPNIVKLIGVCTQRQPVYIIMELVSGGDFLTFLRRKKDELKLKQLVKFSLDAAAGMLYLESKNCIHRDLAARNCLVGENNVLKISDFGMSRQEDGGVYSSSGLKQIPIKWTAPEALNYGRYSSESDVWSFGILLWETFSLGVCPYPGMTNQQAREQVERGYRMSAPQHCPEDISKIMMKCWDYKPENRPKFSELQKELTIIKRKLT
Sequence of Tyrosine-protein kinase ABL1 (Homo sapiens), P00519 [F317I] (P00519 whole entry F317I): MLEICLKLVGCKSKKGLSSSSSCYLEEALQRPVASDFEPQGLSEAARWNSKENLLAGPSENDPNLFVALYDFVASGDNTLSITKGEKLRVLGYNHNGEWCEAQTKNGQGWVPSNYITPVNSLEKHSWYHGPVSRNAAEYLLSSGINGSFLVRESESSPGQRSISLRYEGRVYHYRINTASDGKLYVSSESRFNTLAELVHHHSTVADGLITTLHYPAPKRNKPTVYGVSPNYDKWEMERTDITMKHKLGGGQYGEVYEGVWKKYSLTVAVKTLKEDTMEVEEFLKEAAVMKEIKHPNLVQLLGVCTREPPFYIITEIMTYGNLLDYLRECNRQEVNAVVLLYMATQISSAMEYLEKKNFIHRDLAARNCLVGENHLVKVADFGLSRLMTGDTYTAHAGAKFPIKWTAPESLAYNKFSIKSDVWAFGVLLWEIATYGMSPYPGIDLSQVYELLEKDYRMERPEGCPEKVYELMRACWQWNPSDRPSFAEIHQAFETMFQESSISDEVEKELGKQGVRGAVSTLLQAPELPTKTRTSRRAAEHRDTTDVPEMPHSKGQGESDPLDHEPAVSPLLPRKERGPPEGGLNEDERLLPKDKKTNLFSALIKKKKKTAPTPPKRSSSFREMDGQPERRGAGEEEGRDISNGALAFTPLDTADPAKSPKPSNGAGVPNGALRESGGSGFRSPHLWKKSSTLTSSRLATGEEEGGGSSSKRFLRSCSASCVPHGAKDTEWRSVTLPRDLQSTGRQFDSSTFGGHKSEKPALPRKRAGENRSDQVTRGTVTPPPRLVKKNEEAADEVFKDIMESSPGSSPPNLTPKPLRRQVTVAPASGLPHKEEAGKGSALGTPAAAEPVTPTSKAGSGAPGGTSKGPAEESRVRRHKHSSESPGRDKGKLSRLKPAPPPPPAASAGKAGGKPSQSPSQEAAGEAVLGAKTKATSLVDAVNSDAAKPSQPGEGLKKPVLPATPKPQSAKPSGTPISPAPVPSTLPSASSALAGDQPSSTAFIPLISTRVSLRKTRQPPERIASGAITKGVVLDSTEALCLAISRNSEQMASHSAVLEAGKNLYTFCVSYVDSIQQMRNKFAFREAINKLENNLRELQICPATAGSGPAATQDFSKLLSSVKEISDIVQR
Sequence of Serine/threonine-protein kinase 24 (Homo sapiens) (Q9Y6E0 whole entry, looked up): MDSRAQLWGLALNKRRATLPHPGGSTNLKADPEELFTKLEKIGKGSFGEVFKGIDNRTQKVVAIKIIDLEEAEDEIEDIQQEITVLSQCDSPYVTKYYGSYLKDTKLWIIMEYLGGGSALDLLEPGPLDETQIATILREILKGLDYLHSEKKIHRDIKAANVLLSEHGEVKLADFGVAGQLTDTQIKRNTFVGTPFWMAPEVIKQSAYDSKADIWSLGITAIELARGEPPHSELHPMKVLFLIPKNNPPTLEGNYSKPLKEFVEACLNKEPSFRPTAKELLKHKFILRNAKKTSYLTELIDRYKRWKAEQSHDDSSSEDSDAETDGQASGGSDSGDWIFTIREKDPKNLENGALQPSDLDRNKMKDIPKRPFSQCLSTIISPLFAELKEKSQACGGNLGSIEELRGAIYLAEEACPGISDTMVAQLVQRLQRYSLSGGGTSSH
Sequence of Myosin light chain kinase (Homo sapiens) (Q32MK0 whole entry): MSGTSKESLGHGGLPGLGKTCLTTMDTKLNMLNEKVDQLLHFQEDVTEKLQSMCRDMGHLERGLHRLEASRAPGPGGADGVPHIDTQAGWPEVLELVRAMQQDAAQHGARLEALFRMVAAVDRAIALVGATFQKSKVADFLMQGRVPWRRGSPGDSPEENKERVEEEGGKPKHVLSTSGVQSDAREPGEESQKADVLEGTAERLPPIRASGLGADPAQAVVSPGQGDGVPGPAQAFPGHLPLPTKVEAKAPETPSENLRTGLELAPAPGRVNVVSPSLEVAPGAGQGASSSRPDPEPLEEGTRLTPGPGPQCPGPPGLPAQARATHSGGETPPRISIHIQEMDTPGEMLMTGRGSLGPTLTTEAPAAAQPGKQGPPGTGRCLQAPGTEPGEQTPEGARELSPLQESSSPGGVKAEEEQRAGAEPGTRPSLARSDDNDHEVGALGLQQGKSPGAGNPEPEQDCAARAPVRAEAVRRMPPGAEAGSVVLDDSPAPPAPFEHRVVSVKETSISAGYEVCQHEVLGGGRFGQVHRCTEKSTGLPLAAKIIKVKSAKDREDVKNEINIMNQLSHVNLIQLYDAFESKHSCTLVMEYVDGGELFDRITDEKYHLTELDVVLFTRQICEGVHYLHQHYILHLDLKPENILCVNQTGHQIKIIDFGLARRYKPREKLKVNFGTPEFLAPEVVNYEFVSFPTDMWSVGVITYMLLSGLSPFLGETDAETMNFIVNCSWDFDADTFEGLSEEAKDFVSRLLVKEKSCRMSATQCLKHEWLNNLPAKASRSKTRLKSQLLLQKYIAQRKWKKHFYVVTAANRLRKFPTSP
Sequence of Serine/threonine-protein kinase PLK4 (Homo sapiens) (O00444 whole entry): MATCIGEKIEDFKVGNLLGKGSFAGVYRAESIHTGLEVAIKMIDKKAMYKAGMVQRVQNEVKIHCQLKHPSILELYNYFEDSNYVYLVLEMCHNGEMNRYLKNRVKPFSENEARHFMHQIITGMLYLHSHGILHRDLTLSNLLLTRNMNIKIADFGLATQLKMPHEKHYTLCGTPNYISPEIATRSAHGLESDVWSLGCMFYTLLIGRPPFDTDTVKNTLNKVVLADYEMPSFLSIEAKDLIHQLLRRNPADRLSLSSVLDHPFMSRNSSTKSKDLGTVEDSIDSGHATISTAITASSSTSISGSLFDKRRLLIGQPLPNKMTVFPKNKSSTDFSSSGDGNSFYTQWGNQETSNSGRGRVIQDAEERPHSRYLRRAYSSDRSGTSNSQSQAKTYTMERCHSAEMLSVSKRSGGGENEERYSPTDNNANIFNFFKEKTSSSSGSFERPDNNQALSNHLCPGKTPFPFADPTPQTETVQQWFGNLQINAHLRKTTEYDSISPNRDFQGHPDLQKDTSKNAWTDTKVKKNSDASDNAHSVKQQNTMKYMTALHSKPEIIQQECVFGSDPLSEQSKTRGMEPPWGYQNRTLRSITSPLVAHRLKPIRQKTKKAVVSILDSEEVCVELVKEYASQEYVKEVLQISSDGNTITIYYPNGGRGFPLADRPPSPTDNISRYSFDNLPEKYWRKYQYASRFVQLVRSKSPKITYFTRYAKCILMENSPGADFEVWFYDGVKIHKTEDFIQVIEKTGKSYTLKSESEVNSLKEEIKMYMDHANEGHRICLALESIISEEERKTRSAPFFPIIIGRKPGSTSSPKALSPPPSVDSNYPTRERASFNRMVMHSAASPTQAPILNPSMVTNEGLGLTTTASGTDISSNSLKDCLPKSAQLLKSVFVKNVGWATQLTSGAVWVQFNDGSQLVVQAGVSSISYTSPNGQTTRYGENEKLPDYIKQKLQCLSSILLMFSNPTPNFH
Sequence of Serine/threonine-protein kinase 32C (Homo sapiens) (Q86UX6 whole entry): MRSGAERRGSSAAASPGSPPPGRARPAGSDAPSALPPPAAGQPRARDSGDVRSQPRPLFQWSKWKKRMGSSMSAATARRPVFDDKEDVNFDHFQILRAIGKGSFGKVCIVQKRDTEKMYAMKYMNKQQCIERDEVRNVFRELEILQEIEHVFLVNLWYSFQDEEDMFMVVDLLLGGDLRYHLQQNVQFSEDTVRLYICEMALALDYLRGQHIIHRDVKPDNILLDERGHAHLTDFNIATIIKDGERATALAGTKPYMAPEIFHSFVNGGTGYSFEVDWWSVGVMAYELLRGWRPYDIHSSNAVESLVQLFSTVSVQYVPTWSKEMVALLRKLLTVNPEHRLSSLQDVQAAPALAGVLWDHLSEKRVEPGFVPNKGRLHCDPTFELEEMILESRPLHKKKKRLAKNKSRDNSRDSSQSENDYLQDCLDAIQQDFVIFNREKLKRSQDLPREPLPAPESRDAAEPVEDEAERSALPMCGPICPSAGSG

Cn1cncc1[C@](O)(COc1ccc(C#N)cc1-c1ccc(OC(F)(F)F)cc1)c1ccc(C#N)cc1 [ABT-100]
inactive: residual activity [1] 100% | residual activity [2] 84% | residual activity [3] 100% | residual activity [4] 100% | residual activity [5] 100% | residual activity [6] 71% | residual activity [7] 83% | residual activity [8] 83% | residual activity [9] 87% | residual activity [10] 77% | residual activity [11] 100% | residual activity [12] 92% | residual activity [13] 100% | residual activity [14] 68% | residual activity [15] 100% | residual activity [16] 90% | residual activity [17] 100% | residual activity [18] 100% | residual activity [19] 89% | residual activity [20] 100% | residual activity [21] 100% | residual activity [22] 100% | residual activity [23] 84% | residual activity [24] 100% | residual activity [25] 94% | residual activity [26] 100% | residual activity [27] 100% | residual activity [28] 70% | residual activity [29] 84% | inhibition [30] -1.32% | inhibition [31] 0.0774% | inhibition [32] -4.82%

Cn1cncc1[C@@](O)(COc1ccc(C#N)cc1-c1ccc(OC(F)(F)F)cc1)c1ccc(C#N)cc1 [A-108]
inactive: residual activity [1] 88% | residual activity [2] 100% | residual activity [3] 87% | residual activity [4] 90% | residual activity [5] 92% | residual activity [6] 100% | residual activity [7] 100% | residual activity [8] 100% | residual activity [9] 100% | residual activity [10] 100% | residual activity [11] 97% | residual activity [12] 91% | residual activity [13] 89% | residual activity [14] 81% | residual activity [15] 96% | residual activity [16] 100% | residual activity [17] 100% | residual activity [18] 97% | residual activity [19] 95% | residual activity [20] 90% | residual activity [21] 86% | residual activity [22] 100% | residual activity [23] 100% | residual activity [24] 100% | residual activity [25] 84% | residual activity [26] 100% | residual activity [27] 100% | residual activity [28] 95% | residual activity [29] 80% | inhibition [30] 6.23% | inhibition [31] 23.1% | inhibition [32] 1.23%

Source: ChEMBL document CHEMBL4507257, “Data for DCP probe ABT-100” (2021)
